From patent US8034795B2, “Taxanes covalently bounded to hyaluronic acid or hyaluronic acid derivatives” (Fidia Farmaceutici S.p.A., priority 2002, dated 2011)

Columns and labels:
[1] = intravenous infusion of paclitaxel-Cremophor EL in spite of pre-medication; cited from earlier work
[2] = test system: MDA-MB-231 human breast cancer cell line; assay: In vitro cytotoxicity, MTT test, MDA-MB-231; assay type: cell-based; conditions: MDA-MB-231, 72 h, read-out: IC50 (concentration of drug necessary to inhibit cell growth by 50%)
Protocol: (§1) Four cell lines of human breast cancer were used.
(§2) 1) the test cell line is plated at a concentration of 3,000 cells per well, on a flat-bottomed, 96-well plate;
(§3) 2) 24 hours later, the cells are supplemented with the test solutions suitably diluted in culture medium;
(§4) This is possible because mitochondrial dehydrogenase is able to reduce the tetrazolium salts (yellow) into blue formazan crystals. The greater or lesser intensity of colour is assessed by spectrophotometry (Dezinot, F. et al., J. Immunol. Methods, 1986, 22 (89): 271-277).

[3] = test system: MCF-7 human breast cancer cell line; assay: In vitro cytotoxicity, MTT test, MCF-7; assay type: cell-based; conditions: MCF7, 72 h, read-out: IC50 (concentration of drug necessary to inhibit cell growth by 50%)
Protocol: as §1, §2, §3, §4

[4] = test system: SKBR-3 human breast cancer cell line; assay: In vitro cytotoxicity, MTT test, SKBR-3; assay type: cell-based; conditions: SK-BR-3, 72 h, read-out: IC50 (concentration of drug necessary to inhibit cell growth by 50%)
Protocol: as §1, §2, §3, §4

[5] = test system: human ovary adenocarcinoma cells, OVCAR-3 cells; assay: Survival of nude mice after intraperitoneal implant of OVCAR-3 neoplastic cells; assay type: in vivo, immunodepressed nude mice (Athymic CD-1); conditions: 3 intraperitoneal doses (days 6, 13, 20): 20 mg/kg Taxol or 125 mg/kg HYTAD; 5 animals per group
From the text: For this experiment, we used human ovary adenocarcinoma cells, OVCAR-3 cells, in immunodepressed nude mice belonging to the Athymic CD-1 species.
Each mouse was inoculated by the intraperitoneal route with 5×10^6 cancer cells.
The molecular weight of the HA used for synthesis of this new drug was 200,000 Da (see Example 7 for details of its preparation). Five animals were used for this drug too.
Treated animals: 10 animals were first inoculated with OVCAR-3 cells.
The survival curve was calculated from the date of intervention to the 92nd day after inoculation of the cancer cells into the peritoneum.

SMILES: CC(=O)O[C@H]1C(=O)[C@@]2(C)[C@H]([C@H](OC(=O)c3ccccc3)[C@]3(O)C[C@H](OC(=O)[C@H](O)[C@@H](NC(=O)c4ccccc4)c4ccccc4)C(C)=C1C3(C)C)[C@]1(OC(C)=O)CO[C@@H]1C[C@@H]2O [Taxol ®, paclitaxel]
- patients who experience more or less severe adverse reactions [1]: up to 40%
- IC50 [2]: 350 pM
- IC50 [3]: 3500 pM
- IC50 [4]: 230 pM
- animals that had died on the 92nd day after intervention [5]: none
